Source: the kinase profiling compilation of Christmann-Franck et al. (2016)

Key:
Experiment in all cases: radiometric filter-binding kinase assay
[1] = molecular target: FLT1 (human) (UniProt P17948)
[2] = molecular target: MARK3 (human) (UniProt P27448)
[3] = molecular target: PRKCZ (human) (UniProt Q05513)
[4] = molecular target: MAP3K5 (human) (UniProt Q99683)
[5] = molecular target: GCK (human) (UniProt Q12851)
[6] = molecular target: MAPK3 (human) (UniProt P27361)
[7] = molecular target: CDK2 CCNA2 (human) (UniProt P20248+P24941)
[8] = molecular target: PRKCA (human) (UniProt P17252)
[9] = molecular target: MST4 (human) (UniProt Q9P289)
[10] = molecular target: CHEK1 (human) (UniProt O14757)
Sequence of CHEK1 (human) (O14757 whole entry, looked up): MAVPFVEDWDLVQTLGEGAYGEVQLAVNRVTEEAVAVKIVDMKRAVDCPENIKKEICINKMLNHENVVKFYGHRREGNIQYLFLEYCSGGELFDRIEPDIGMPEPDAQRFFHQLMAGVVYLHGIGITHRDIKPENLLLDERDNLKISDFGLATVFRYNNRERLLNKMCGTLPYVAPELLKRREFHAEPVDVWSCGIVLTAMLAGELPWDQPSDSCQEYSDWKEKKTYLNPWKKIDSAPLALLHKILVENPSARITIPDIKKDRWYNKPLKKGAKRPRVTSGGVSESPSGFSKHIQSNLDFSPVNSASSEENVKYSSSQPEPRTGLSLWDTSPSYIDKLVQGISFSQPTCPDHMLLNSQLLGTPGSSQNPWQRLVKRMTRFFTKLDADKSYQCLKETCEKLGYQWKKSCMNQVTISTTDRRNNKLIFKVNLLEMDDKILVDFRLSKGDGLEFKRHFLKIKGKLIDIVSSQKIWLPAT

[11] = molecular target: RPS6KA3 KD1 KD2 (human) (UniProt P51812)
Sequence of RPS6KA3 KD1 KD2 (human) (P51812 whole entry, looked up): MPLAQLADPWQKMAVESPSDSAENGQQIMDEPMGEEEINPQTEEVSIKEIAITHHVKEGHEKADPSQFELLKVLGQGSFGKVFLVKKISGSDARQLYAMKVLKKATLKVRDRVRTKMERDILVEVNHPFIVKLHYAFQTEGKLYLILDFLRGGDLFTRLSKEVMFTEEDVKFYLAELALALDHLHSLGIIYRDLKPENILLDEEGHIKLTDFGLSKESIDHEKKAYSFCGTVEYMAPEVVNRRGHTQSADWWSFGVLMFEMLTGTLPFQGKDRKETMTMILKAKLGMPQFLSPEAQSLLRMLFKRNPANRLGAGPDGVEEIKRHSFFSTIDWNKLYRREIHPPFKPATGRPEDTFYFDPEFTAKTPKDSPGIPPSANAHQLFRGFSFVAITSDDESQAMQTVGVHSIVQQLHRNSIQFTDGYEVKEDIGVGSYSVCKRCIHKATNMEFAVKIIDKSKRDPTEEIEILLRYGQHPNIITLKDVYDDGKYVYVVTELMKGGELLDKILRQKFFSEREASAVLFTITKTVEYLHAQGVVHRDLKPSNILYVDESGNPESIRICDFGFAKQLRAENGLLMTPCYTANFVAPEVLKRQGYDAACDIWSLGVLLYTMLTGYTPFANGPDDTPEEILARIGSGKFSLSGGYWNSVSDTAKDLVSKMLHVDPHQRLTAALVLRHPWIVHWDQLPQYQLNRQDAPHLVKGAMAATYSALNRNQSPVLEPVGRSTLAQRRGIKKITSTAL

[12] = molecular target: DAPK1 (human) (UniProt P53355)
Sequence of DAPK1 (human) (P53355 whole entry, looked up): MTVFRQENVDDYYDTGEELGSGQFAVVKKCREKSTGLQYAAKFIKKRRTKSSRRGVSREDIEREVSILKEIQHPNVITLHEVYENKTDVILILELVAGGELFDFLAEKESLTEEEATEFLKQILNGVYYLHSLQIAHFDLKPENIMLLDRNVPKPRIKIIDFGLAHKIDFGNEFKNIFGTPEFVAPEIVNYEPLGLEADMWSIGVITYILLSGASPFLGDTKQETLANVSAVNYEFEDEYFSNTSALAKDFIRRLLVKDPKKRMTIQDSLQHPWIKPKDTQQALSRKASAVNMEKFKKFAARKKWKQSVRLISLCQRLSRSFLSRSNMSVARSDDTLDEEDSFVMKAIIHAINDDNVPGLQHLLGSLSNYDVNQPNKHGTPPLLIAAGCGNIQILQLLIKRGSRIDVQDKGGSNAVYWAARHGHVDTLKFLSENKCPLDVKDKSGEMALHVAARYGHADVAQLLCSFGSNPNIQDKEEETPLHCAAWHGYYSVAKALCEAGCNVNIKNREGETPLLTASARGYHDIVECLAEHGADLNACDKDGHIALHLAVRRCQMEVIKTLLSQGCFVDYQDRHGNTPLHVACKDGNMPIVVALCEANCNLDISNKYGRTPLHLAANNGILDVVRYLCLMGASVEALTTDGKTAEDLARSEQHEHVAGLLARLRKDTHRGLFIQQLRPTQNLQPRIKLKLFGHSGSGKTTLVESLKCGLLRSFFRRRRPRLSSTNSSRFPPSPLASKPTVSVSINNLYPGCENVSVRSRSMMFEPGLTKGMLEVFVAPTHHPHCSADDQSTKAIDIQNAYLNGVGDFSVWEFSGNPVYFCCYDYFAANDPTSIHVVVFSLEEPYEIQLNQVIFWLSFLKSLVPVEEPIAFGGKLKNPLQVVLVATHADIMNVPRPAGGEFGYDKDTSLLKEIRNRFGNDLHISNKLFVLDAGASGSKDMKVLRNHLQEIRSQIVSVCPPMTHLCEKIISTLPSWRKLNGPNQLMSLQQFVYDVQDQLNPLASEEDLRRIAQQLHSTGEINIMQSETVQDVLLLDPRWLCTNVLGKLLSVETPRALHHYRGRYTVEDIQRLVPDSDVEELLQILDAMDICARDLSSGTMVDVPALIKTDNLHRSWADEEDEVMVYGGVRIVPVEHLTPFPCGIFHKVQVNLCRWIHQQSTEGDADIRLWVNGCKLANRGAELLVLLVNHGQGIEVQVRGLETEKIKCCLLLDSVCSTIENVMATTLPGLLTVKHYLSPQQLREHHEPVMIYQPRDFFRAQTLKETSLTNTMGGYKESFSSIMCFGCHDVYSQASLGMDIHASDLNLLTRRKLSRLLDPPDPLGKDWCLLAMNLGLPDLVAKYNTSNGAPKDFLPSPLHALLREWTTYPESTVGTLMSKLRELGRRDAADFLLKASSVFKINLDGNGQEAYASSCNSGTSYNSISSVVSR

[13] = molecular target: PLK1 (human) (UniProt P53350)
[14] = molecular target: STK3 (human) (UniProt Q13188)
[15] = molecular target: AURKA (human) (UniProt O14965)
[16] = molecular target: NTRK1 (human) (UniProt P04629)
[17] = molecular target: HIPK3 (human) (UniProt Q9H422)
[18] = molecular target: MARK4 (human) (UniProt Q96L34)
[19] = molecular target: HIPK1 (human) (UniProt Q86Z02)
[20] = molecular target: MAP3K1 (human) (UniProt Q13233)
[21] = molecular target: TAOK1 (human) (UniProt Q7L7X3)
Sequence of TAOK1 (human) (Q7L7X3 whole entry, looked up): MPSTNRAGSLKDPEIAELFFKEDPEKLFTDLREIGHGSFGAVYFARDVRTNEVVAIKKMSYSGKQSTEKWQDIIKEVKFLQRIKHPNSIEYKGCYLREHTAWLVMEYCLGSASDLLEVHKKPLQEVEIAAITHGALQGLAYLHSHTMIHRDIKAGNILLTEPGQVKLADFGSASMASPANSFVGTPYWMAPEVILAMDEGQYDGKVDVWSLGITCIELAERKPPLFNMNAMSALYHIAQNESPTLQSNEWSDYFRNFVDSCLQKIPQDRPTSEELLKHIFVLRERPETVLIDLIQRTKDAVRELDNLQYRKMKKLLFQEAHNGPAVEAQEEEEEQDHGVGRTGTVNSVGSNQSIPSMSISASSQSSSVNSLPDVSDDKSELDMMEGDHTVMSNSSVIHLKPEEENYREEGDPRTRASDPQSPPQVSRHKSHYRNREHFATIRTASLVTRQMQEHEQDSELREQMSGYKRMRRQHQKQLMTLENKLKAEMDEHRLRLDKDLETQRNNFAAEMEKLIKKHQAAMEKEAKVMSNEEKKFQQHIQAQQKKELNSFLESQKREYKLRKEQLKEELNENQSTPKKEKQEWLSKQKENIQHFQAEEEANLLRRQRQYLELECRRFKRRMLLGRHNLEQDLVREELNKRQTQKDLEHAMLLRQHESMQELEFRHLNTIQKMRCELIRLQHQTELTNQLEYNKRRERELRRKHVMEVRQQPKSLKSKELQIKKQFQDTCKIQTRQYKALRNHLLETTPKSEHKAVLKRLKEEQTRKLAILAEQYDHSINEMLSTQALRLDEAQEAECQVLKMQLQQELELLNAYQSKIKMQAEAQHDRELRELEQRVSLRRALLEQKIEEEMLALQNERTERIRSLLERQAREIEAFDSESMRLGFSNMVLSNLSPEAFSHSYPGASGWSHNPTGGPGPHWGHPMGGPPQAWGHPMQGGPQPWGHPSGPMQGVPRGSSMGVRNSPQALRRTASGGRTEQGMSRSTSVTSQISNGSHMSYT

[22] = molecular target: EEF2K (human) (UniProt O00418)
[23] = molecular target: CLK2 (human) (UniProt P49760)
[24] = molecular target: NUAK1 (human) (UniProt O60285)
[25] = molecular target: RPS6KA1 KD1 KD2 (human) (UniProt Q15418)
[26] = molecular target: CHEK2 (human) (UniProt O96017)
[27] = molecular target: EPHB4 (human) (UniProt P54760)
[28] = molecular target: JAK2 JH1 JH2 (human) (UniProt O60674)
[29] = molecular target: MAPK1 (human) (UniProt P28482)
[30] = molecular target: ERBB4 (human) (UniProt Q15303)
[31] = molecular target: PAK6 (human) (UniProt Q9NQU5)
[32] = molecular target: BRSK2 (human) (UniProt Q8IWQ3)
[33] = tested on: SGK1 (human), O00141 [S422D]
[34] = molecular target: SRC (human) (UniProt P12931)
[35] = molecular target: RPS6KA5 KD1 KD2 (human) (UniProt O75582)

Sequence of MAP3K5 (human) (Q99683 whole entry, looked up): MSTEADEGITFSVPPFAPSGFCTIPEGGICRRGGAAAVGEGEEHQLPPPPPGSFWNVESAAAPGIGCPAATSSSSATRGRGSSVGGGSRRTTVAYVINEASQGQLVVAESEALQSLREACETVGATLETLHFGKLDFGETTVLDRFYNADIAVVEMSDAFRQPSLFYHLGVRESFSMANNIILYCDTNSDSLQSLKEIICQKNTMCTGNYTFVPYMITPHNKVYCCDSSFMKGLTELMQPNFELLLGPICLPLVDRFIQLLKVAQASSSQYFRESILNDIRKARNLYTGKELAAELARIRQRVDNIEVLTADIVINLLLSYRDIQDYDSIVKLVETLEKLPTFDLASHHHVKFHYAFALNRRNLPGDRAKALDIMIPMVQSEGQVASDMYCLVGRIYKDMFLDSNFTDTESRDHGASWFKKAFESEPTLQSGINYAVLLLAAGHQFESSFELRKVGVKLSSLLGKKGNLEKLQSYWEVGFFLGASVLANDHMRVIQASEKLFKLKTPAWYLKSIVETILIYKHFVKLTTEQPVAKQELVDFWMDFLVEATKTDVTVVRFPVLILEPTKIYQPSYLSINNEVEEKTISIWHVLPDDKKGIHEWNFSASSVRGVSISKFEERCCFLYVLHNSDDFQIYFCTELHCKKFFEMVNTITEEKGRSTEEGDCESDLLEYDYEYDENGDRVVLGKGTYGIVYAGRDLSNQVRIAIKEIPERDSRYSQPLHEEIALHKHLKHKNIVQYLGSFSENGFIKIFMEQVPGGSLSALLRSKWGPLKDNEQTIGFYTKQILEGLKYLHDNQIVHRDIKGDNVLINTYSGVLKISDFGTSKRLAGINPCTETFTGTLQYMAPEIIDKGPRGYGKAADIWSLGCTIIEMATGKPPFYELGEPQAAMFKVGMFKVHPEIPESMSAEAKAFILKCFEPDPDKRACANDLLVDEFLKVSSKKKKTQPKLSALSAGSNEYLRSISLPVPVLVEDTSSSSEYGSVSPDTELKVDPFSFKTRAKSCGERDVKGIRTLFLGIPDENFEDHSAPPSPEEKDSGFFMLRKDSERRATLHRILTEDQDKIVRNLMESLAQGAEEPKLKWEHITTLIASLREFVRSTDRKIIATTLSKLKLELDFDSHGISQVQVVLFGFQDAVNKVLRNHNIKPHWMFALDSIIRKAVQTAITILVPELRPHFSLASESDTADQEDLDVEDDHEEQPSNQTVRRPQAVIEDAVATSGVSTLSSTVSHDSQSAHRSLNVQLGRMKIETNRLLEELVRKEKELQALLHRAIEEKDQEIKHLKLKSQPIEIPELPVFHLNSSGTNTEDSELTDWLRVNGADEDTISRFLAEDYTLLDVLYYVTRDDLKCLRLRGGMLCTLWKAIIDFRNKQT

**Q.** Which residual activity ([1]; compound 0.01 µM) does the source give for `CNC(=O)C1[C@H]2O[C@@](C)([C@@H]1N)n1c3ccccc3c3c4c(c5c6ccccc6n2c5c31)C(=O)NC4` (stereo partly drawn) here?
**A.** 17%

**Q.** What about the residual activity ([1]; compound 0.1 µM) of the same compound?
**A.** 13%

**Q.** And the residual activity ([1]; compound 1.0 µM)?
**A.** 4%

**Q.** And the residual activity ([2]; compound 0.01 µM)?
**A.** 7%

**Q.** And the residual activity ([2]; compound 0.1 µM)?
**A.** 3%

**Q.** And the residual activity ([2]; compound 1.0 µM)?
**A.** 2%

**Q.** And the residual activity ([3]; compound 0.01 µM)?
**A.** 110%

**Q.** What about the residual activity ([3]; compound 0.1 µM) of the same compound?
**A.** 56%

**Q.** What about the residual activity ([3]; compound 1.0 µM) of the same compound?
**A.** 15%

**Q.** And the residual activity ([4]; compound 0.01 µM)?
**A.** 113%

**Q.** And the residual activity ([4]; compound 0.1 µM)?
**A.** 15%

**Q.** And the residual activity ([4]; compound 1.0 µM)?
**A.** 2%

**Q.** What about the residual activity ([5]; compound 0.01 µM) of the same compound?
**A.** 6%

**Q.** What about the residual activity ([5]; compound 0.1 µM) of the same compound?
**A.** 4%

**Q.** What about the residual activity ([5]; compound 1.0 µM) of the same compound?
**A.** 2%

**Q.** And the residual activity ([6]; compound 0.1 µM)?
**A.** 4%

**Q.** And the residual activity ([6]; compound 1.0 µM)?
**A.** 2%

**Q.** And the residual activity ([7]; compound 0.01 µM)?
**A.** 18%

**Q.** And the residual activity ([7]; compound 0.1 µM)?
**A.** 9%

**Q.** And the residual activity ([7]; compound 1.0 µM)?
**A.** 8%

**Q.** What about the residual activity ([8]; compound 0.01 µM) of the same compound?
**A.** 79%

**Q.** What about the residual activity ([8]; compound 0.1 µM) of the same compound?
**A.** 44%

**Q.** What about the residual activity ([9]; compound 0.01 µM) of the same compound?
**A.** 86%

**Q.** What about the residual activity ([9]; compound 0.1 µM) of the same compound?
**A.** 26%

**Q.** And the residual activity ([9]; compound 1.0 µM)?
**A.** 20%

**Q.** And the residual activity ([10]; compound 0.01 µM)?
**A.** 11%

**Q.** What about the residual activity ([10]; compound 0.1 µM) of the same compound?
**A.** 4%

**Q.** And the residual activity ([10]; compound 1.0 µM)?
**A.** 3%

**Q.** What about the residual activity ([11]; compound 0.01 µM) of the same compound?
**A.** 16%

**Q.** And the residual activity ([11]; compound 0.1 µM)?
**A.** 7%

**Q.** What about the residual activity ([11]; compound 1.0 µM) of the same compound?
**A.** 6%

**Q.** What about the residual activity ([12]; compound 0.01 µM) of the same compound?
**A.** 51%

**Q.** And the residual activity ([12]; compound 0.1 µM)?
**A.** 18%

**Q.** And the residual activity ([12]; compound 1.0 µM)?
**A.** 4%

**Q.** And the residual activity ([13]; compound 0.01 µM)?
**A.** 68%

**Q.** And the residual activity ([13]; compound 0.1 µM)?
**A.** 38%

**Q.** And the residual activity ([13]; compound 1.0 µM)?
**A.** 22%

**Q.** And the residual activity ([14]; compound 0.01 µM)?
**A.** 18%

**Q.** What about the residual activity ([14]; compound 0.1 µM) of the same compound?
**A.** 16%

**Q.** What about the residual activity ([14]; compound 1.0 µM) of the same compound?
**A.** 9%

**Q.** And the residual activity ([15]; compound 0.01 µM)?
**A.** 28%

**Q.** What about the residual activity ([15]; compound 0.1 µM) of the same compound?
**A.** 4%

**Q.** What about the residual activity ([15]; compound 1.0 µM) of the same compound?
**A.** 5%

**Q.** What about the residual activity ([16]; compound 0.01 µM) of the same compound?
**A.** 5%

**Q.** And the residual activity ([16]; compound 0.1 µM)?
**A.** 3%

**Q.** And the residual activity ([16]; compound 1.0 µM)?
**A.** 2%

**Q.** What about the residual activity ([17]; compound 0.01 µM) of the same compound?
**A.** 83%

**Q.** And the residual activity ([17]; compound 0.1 µM)?
**A.** 43%

**Q.** And the residual activity ([17]; compound 1.0 µM)?
**A.** 10%

**Q.** What about the residual activity ([18]; compound 0.01 µM) of the same compound?
**A.** 10%

**Q.** And the residual activity ([18]; compound 0.1 µM)?
**A.** 2%

**Q.** And the residual activity ([18]; compound 1.0 µM)?
**A.** 1%

**Q.** What about the residual activity ([19]; compound 0.01 µM) of the same compound?
**A.** 98%

**Q.** What about the residual activity ([19]; compound 0.1 µM) of the same compound?
**A.** 82%

**Q.** What about the residual activity ([19]; compound 1.0 µM) of the same compound?
**A.** 22%

**Q.** What about the residual activity ([20]; compound 0.01 µM) of the same compound?
**A.** 97%

**Q.** What about the residual activity ([20]; compound 0.1 µM) of the same compound?
**A.** 78%

**Q.** And the residual activity ([20]; compound 1.0 µM)?
**A.** 23%

**Q.** And the residual activity ([21]; compound 0.01 µM)?
**A.** 53%

**Q.** What about the residual activity ([21]; compound 0.1 µM) of the same compound?
**A.** 15%

**Q.** And the residual activity ([21]; compound 1.0 µM)?
**A.** 7%

**Q.** And the residual activity ([22]; compound 0.01 µM)?
**A.** 105%

**Q.** And the residual activity ([22]; compound 0.1 µM)?
**A.** 97%

**Q.** And the residual activity ([22]; compound 1.0 µM)?
**A.** 79%

**Q.** And the residual activity ([23]; compound 0.01 µM)?
**A.** 9%

**Q.** What about the residual activity ([23]; compound 0.1 µM) of the same compound?
**A.** -1%

**Q.** What about the residual activity ([23]; compound 1.0 µM) of the same compound?
**A.** -1%

**Q.** And the residual activity ([24]; compound 0.01 µM)?
**A.** 2%

**Q.** And the residual activity ([24]; compound 0.1 µM)?
**A.** 2%

**Q.** What about the residual activity ([24]; compound 1.0 µM) of the same compound?
**A.** 1%

**Q.** And the residual activity ([25]; compound 0.01 µM)?
**A.** 9%

**Q.** What about the residual activity ([25]; compound 0.1 µM) of the same compound?
**A.** 3%

**Q.** What about the residual activity ([25]; compound 1.0 µM) of the same compound?
**A.** 1%

**Q.** And the residual activity ([26]; compound 0.01 µM)?
**A.** 24%

**Q.** What about the residual activity ([26]; compound 0.1 µM) of the same compound?
**A.** 5%

**Q.** And the residual activity ([26]; compound 1.0 µM)?
**A.** 2%

**Q.** What about the residual activity ([27]; compound 0.01 µM) of the same compound?
**A.** 102%

**Q.** What about the residual activity ([27]; compound 0.1 µM) of the same compound?
**A.** 60%

**Q.** What about the residual activity ([27]; compound 1.0 µM) of the same compound?
**A.** 8%

**Q.** What about the residual activity ([28]; compound 0.01 µM) of the same compound?
**A.** 10%

**Q.** What about the residual activity ([28]; compound 0.1 µM) of the same compound?
**A.** 12%

**Q.** What about the residual activity ([28]; compound 1.0 µM) of the same compound?
**A.** 7%

**Q.** What about the residual activity ([29]; compound 0.01 µM) of the same compound?
**A.** 22%

**Q.** What about the residual activity ([29]; compound 0.1 µM) of the same compound?
**A.** 6%

**Q.** And the residual activity ([29]; compound 1.0 µM)?
**A.** 5%

**Q.** And the residual activity ([30]; compound 0.01 µM)?
**A.** 96%

**Q.** What about the residual activity ([30]; compound 0.1 µM) of the same compound?
**A.** 63%

**Q.** What about the residual activity ([30]; compound 1.0 µM) of the same compound?
**A.** 14%

**Q.** What about the residual activity ([31]; compound 0.01 µM) of the same compound?
**A.** 29%

**Q.** What about the residual activity ([31]; compound 0.1 µM) of the same compound?
**A.** 2%

**Q.** And the residual activity ([31]; compound 1.0 µM)?
**A.** 1%

**Q.** What about the residual activity ([32]; compound 0.01 µM) of the same compound?
**A.** 16%

**Q.** And the residual activity ([32]; compound 0.1 µM)?
**A.** 10%

**Q.** What about the residual activity ([32]; compound 1.0 µM) of the same compound?
**A.** 8%

**Q.** And the residual activity ([33]; compound 0.01 µM)?
**A.** 79%

**Q.** What about the residual activity ([33]; compound 0.1 µM) of the same compound?
**A.** 32%

**Q.** What about the residual activity ([33]; compound 1.0 µM) of the same compound?
**A.** 10%

**Q.** And the residual activity ([34]; compound 0.01 µM)?
**A.** 78%

**Q.** What about the residual activity ([34]; compound 0.1 µM) of the same compound?
**A.** 19%

**Q.** And the residual activity ([34]; compound 1.0 µM)?
**A.** 6%

**Q.** What about the residual activity ([35]; compound 0.01 µM) of the same compound?
**A.** 41%

**Q.** And the residual activity ([35]; compound 0.1 µM)?
**A.** 10%

**Q.** And the residual activity ([35]; compound 1.0 µM)?
**A.** 2%
